Experimental data: article PMC5099554 (British Journal of Clinical Pharmacology, 2016)
Like-named read-outs stand apart in the source and are kept apart here. Blank lines part the entries; values can stand above or below the compound they belong to.

Legend:
[1] = healthy male subjects, plasma; for AUC(0-inf): AUCinf; for AUC(0-inf) / AUC(0-t): geometric mean; for AUC(0-t): AUClast; for half-life: t 1/2, geometric mean
[2] = target: CYP3A4 (Homo sapiens, UniProt P08684); settings: in vitro; cited from earlier work
[3] = system: CYP enzyme; settings: in vitro studies; cited from earlier work
[4] = target: CYP2C9 (Homo sapiens, UniProt P11712); settings: in vitro; cited from earlier work
[5] = male, human, in vivo, After FRG, after 2 weeks of fermented red ginseng
[6] = male, human, in vivo, Before FRG, before fermented red ginseng

Chain of CYP3A4 (P08684 whole entry): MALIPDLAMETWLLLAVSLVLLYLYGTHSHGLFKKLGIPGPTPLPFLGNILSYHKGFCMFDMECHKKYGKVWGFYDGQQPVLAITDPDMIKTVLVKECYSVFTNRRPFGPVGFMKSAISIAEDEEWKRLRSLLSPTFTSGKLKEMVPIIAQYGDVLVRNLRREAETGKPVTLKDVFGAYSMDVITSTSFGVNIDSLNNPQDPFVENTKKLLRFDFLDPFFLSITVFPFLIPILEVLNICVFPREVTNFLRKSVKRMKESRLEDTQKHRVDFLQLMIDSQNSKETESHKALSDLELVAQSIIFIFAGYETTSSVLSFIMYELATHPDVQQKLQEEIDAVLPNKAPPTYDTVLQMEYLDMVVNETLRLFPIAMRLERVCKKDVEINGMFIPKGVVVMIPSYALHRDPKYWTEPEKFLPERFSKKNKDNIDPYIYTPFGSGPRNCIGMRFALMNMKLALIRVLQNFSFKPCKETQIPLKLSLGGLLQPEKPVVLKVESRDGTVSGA
Chain of CYP2C9 (P11712 whole entry): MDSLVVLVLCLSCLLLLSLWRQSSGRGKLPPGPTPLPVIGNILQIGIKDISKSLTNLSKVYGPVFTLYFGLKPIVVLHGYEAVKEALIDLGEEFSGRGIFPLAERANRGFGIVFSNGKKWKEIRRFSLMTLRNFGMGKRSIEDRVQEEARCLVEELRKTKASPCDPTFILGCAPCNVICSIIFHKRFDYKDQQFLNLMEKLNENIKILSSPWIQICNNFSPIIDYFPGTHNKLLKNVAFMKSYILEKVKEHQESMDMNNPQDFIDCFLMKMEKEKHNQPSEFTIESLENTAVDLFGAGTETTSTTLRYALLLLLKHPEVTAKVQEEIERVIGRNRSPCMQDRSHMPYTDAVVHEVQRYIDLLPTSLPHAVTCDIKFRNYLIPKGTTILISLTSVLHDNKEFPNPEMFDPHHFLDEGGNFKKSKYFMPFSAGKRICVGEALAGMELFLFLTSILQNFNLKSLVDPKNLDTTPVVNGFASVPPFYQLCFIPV

AUCinf, geometric mean ratio, After FRG: Before FRG (90% CI) [1]: 0.936 (0.819–1.069)
AUClast, geometric mean ratio, After FRG: Before FRG (90% CI) [1]: 0.931 (0.812–1.067)
C max, geometric mean ratio, After FRG: Before FRG (90% CI) [1]: 0.892 (0.747–1.066)
t max (median), Before FRG ([1]; before fermented red ginseng): 2.000 h
AUC(0-inf) [1, 5]: 1280 ng·h/mL
AUC(0-inf) [1, 6]: 1370 ng·h/mL
AUC(0-t) [1, 5]: 1260 ng·h/mL
AUC(0-t) [1, 6]: 1350 ng·h/mL
half-life [1, 5]: 1.22 h
half-life [1, 6]: 1.19 h
SMILES: COc1ccc2[nH]c([S+]([O-])Cc3ncc(C)c(OC)c3C)nc2c1 (centres unmarked) [Omeprazole, omeprazole]

SMILES: CC(C)=CCC[C@](C)(O)[C@H]1CC[C@]2(C)[C@@H]1[C@H](O)C[C@@H]1[C@@]3(C)CC[C@H](O)C(C)(C)[C@@H]3[C@@H](O)C[C@]12C [PPT, protopanaxatriol]
inhibition of CYP3A4 activity [2]: potent inhibition

AUCinf, geometric mean ratio, After FRG: Before FRG (90% CI) [1]: 1.432 (1.125–1.823)
AUClast, geometric mean ratio, After FRG: Before FRG (90% CI) [1]: 1.017 (0.943–1.096)
C max, geometric mean ratio, After FRG: Before FRG (90% CI) [1]: 0.979 (0.906–1.057)
AUC(0-inf) [1, 5]: 53900 ng·h/mL
AUC(0-inf) [1, 6]: 37600 ng·h/mL
AUC(0-t) [1, 5]: 24600 ng·h/mL
AUC(0-t) [1, 6]: 24200 ng·h/mL
half-life [1, 5]: 20.7 h
half-life [1, 6]: 11.8 h
Tmax ([1]; male, human, in vivo, t max (median), After FRG, after 2 weeks of fermented red ginseng): 6 h
SMILES: Cn1c(=O)[nH]c2ncn(C)c2c1=O [Paraxanthine, paraxanthine]

SMILES: CC(C)=CCC[C@](C)(O[C@@H]1O[C@H](CO[C@@H]2OC[C@H](O)[C@H](O)[C@H]2O)[C@@H](O)[C@H](O)[C@H]1O)[C@H]1CC[C@]2(C)[C@@H]1[C@H](O)C[C@@H]1[C@@]3(C)CC[C@H](O[C@@H]4O[C@H](CO)[C@@H](O)[C@H](O)[C@H]4O[C@@H]4O[C@H](CO)[C@@H](O)[C@H](O)[C@H]4O)C(C)(C)[C@@H]3CC[C@]12C [Rb2, ginsenoside Rb2]
effect on CYP enzyme activity [3]: do not affect

SMILES: CC(C)=CCC[C@](C)(O[C@@H]1O[C@H](CO[C@@H]2O[C@@H](CO)[C@H](O)[C@H]2O)[C@@H](O)[C@H](O)[C@H]1O)[C@H]1CC[C@]2(C)[C@@H]1[C@H](O)C[C@@H]1[C@@]3(C)CC[C@H](O[C@@H]4O[C@H](CO)[C@@H](O)[C@H](O)[C@H]4O[C@@H]4O[C@H](CO)[C@@H](O)[C@H](O)[C@H]4O)C(C)(C)[C@@H]3CC[C@]12C [Rc, ginsenoside Rc]
effect on CYP enzyme activity [3]: do not affect

SMILES: CC(C)=CCC[C@](C)(O[C@@H]1O[C@H](CO)[C@@H](O)[C@H](O)[C@H]1O)[C@H]1CC[C@]2(C)[C@@H]1[C@H](O)C[C@@H]1[C@@]3(C)CC[C@H](O)C(C)(C)[C@@H]3[C@@H](O[C@@H]3O[C@H](CO)[C@@H](O)[C@H](O)[C@H]3O)C[C@]12C [Rg1, ginsenoside Rg1]
effect on CYP enzyme activity [3]: do not affect

SMILES: CC(C)=CCC[C@](C)(O[C@@H]1O[C@H](CO)[C@@H](O)[C@H](O)[C@H]1O)[C@H]1CC[C@]2(C)[C@@H]1[C@H](O)C[C@@H]1[C@@]3(C)CC[C@H](O)C(C)(C)[C@@H]3CC[C@]12C [compound K, 20‐O‐(β‐D‐glucopyranosyl)‐20(S)‐protopanaxadiol]
inhibition of CYP3A4 activity [2]: moderate inhibition
inhibition of CYP2C9 activity [4]: moderate inhibition

SMILES: CC(C)=CCC[C@](C)(O[C@@H]1O[C@H](CO[C@@H]2O[C@H](CO)[C@@H](O)[C@H](O)[C@H]2O)[C@@H](O)[C@H](O)[C@H]1O)[C@H]1CC[C@]2(C)[C@@H]1[C@H](O)C[C@@H]1[C@@]3(C)CC[C@H](O[C@@H]4O[C@H](CO)[C@@H](O)[C@H](O)[C@H]4O[C@@H]4O[C@H](CO)[C@@H](O)[C@H](O)[C@H]4O)C(C)(C)[C@@H]3CC[C@]12C [ginsenoside Rb1]
effect on CYP enzyme activity [3]: do not affect

SMILES: CC(C)=CCC[C@](C)(O)[C@H]1CC[C@]2(C)[C@@H]1[C@H](O)C[C@@H]1[C@@]3(C)CC[C@H](O[C@@H]4O[C@H](CO)[C@@H](O)[C@H](O)[C@H]4O)C(C)(C)[C@@H]3CC[C@]12C [ginsenoside Rh2]
inhibition of CYP3A4 activity [2]: moderate inhibition
inhibition of CYP2C9 activity [4]: moderate inhibition
